# Test results as given in patent publication US20120219500A1, “DIAGNOSTIC AGENT FOR INFECTIOUS DISEASES” (FUJIFILM RI PHARMA CO., LTD., priority 2009, published 2012).
# Read-outs that look alike come from different tables or passages of the source.
# How the values were obtained:
# Bacteroides fragilis = assay: in vitro uptake of radionuclide-labeled nitroimidazole derivatives (gamma counter); type: cell-based; details: for uptake by obligate anaerobes compared with facultative anaerobes: 26 to 37 KBq radiolabeled derivative, anaerobic, 37° C., rate of uptake per 10^8 CFU (FIGS. 3-6)
# [1] = type: in vivo
# [2] = test system: attenuated Mycobacterium bovis (BCG, ATCC35734); type: cell-based; details: anaerobic, 37° C.
# [3] = test system: Bacteroides fragilis (ATCC25285); assay: in vitro uptake of nitroimidazole derivative under anaerobic environment (absorbance of supernatant); type: cell-based; details: 37° C.
# E.coli (ATCC25922) [4] = assay: as above; type: cell-based; details: 100 μM metronidazole, 37° C., rate of uptake per 10^8 CFU (FIG. 1)
# [5] = rat subcutaneous infection model, non-infected skin site; type: in vivo; details: SD rat, i.v. 6.5 hours before blood collection
# Method: An in vivo assay was performed using a rat subcutaneous infection model. As the nitroimidazole derivative, Compound 1 or Compound 2 was used. As the microorganism, two strains of Bacteroides fragilis (ATCC25285, NCTC10581), which is susceptible to metronidazole, or E.coli (ATCC25922), which is not susceptible to metronidazole, was used. A 6-week-old male SD rat was administered with 5×10^9 cfu/0.1 ml bacteria suspended in physiological saline subcutaneously into the left thigh, and then served for evaluation four days later. Approximately 0.74 MBq of Compound 1 or Compound 2 was administered via the vena jugularis externa, and three hours later, blood was collected and tissues were excised. Also, for evaluation of inflammation in the infection model, approximately 0.15 MBq of [^67Ga]gallium citrate (FUJIFILM RI Pharma Co., Ltd.), which is a radioactive diagnostic agent for inflammation, was administered via the vena jugularis externa 6.5 hours before blood collection. […] Radioactivity (cpm) of each of ^67Ga and ^125I was measured in blood, in the infected skin site, and in the non-infection site on the skin. Radioactivity of ^125I was measured after attenuating the radioactivity of ^67Ga. The amount accumulated in each tissue and % ID/g (the ratio of radioactivity per tissue weight relative to the radioactivity administered) were calculated.
# [6] = test system: Bacteroides fragilis (ATCC25285, NCTC10581); assay: rat subcutaneous infection model, infected skin site; type: in vivo; details: SD rat, i.v. 6.5 hours before blood collection
# Method: (§1) An in vivo assay was performed using a rat subcutaneous infection model. As the nitroimidazole derivative, Compound 1 or Compound 2 was used. As the microorganism, two strains of Bacteroides fragilis (ATCC25285, NCTC10581), which is susceptible to metronidazole, or E.coli (ATCC25922), which is not susceptible to metronidazole, was used. A 6-week-old male SD rat was administered with 5×10^9 cfu/0.1 ml bacteria suspended in physiological saline subcutaneously into the left thigh, and then served for evaluation four days later. Approximately 0.74 MBq of Compound 1 or Compound 2 was administered via the vena jugularis externa, and three hours later, blood was collected and tissues were excised. Also, for evaluation of inflammation in the infection model, approximately 0.15 MBq of [^67Ga]gallium citrate (FUJIFILM RI Pharma Co., Ltd.), which is a radioactive diagnostic agent for inflammation, was administered via the vena jugularis externa 6.5 hours before blood collection. The viable bacteria in the infected tissue was confirmed by smearing a part of the infected skin tissue on a medium and culturing it. Radioactivity (cpm) of each of ^67Ga and ^125I was measured in blood, in the infected skin site, and in the non-infection site on the skin. Radioactivity of ^125I was measured after attenuating the radioactivity of ^67Ga. The amount accumulated in each tissue and % ID/g (the ratio of radioactivity per tissue weight relative to the radioactivity administered) were calculated.
# E.coli (ATCC25922) [7] = assay: as above; type: in vivo; details: SD rat, i.v. 6.5 hours before blood collection
# Method: as §1
# [8] = approx. 0.74 MBq i.v., three hours later
compound,measurement,setting,value
fluorine-18-labeled fluoromisonidazole [[^18F]FMISO],uptake by obligate anaerobes compared with facultative anaerobes,Bacteroides fragilis,taken up in a greater amount by obligate anaerobes than by facultative anaerobes
"O=C(NCCn1ccnc1[N+](=O)[O-])c1cccc(I)c1 [Compound 2, N1-[2-(2-nitro-1H-1-imidazolyl)ethyl]-3-iodobenzamide]",uptake by obligate anaerobes compared with facultative anaerobes,Bacteroides fragilis,taken up in a greater amount by obligate anaerobes than by facultative anaerobes
same,amount accumulated in the inflammatory skin site/blood,[1]; [8],0.73±0.11
same,uptake by BCG compared with E.coli,"[2]; Compound 2 0.1 mM, rate of uptake per 10^7 CFU (FIG. 9)",clearly taken up in a greater amount by nitroimidazole derivative susceptible BCG than by non-nitroimidazole derivative susceptible E.coli
"Cc1ncc([N+](=O)[O-])n1CCNC(=O)c1cccc(I)c1 [Compound 1, [^125I]N1-[2-(2-methyl-5-nitro-1H-1-imidazolyl)ethyl]-3-iodobenzamide]",uptake by obligate anaerobes compared with facultative anaerobes,Bacteroides fragilis,taken up in a greater amount by obligate anaerobes than by facultative anaerobes
same,amount accumulated in the inflammatory skin site/blood,[1]; [8],0.85±0.25
"Cc1ncc([N+](=O)[O-])n1CCO [Metronidazole, metronidazole]",uptake by the obligate anaerobe Bacteroides fragilis,"[3]; 100 μM metronidazole, rate of uptake per 10^8 CFU (FIG. 1)",taken up in a large amount
same,uptake by the facultative anaerobe E.coli,E.coli (ATCC25922) [4],taken up in little amount
O=C([O-])CC(O)(CC(=O)[O-])C(=O)[O-].[67Ga+3] [[^67Ga]gallium citrate],amount accumulated in the non-infected skin site/blood,[5],0.41±0.06
same,amount accumulated in the inflammatory skin site/blood,"[1]; rat, in vivo, iv",1.61±0.16
same,amount accumulated in the infected skin site/blood,[6]; Bacteroides fragilis (ATCC25285),1.75 ±0.2
same,amount accumulated in the infected skin site/blood,[6]; Bacteroides fragilis (NCTC10581),1.89±0.4
same,amount accumulated in the infected skin site/blood,E.coli (ATCC25922) [7],1.73±0.7
[^67Ga] Ga-DOTA-(metronidazole)2 [Compound 3],uptake by obligate anaerobes compared with facultative anaerobes,Bacteroides fragilis,taken up in a greater amount by obligate anaerobes than by facultative anaerobes
same,rate of uptake versus number of viable obligate anaerobes,"Bacteroides fragilis; 37° C. for 120 minutes, 0.43×10^8 to 6.75×10^8 CFU/mL viable Bacteroides fragilis (FIG. 7)",increased in a manner correlated with the number of viable obligate anaerobes
"O=[N+]([O-])c1nccn1CC(O)CF (centres unmarked) [[^19F]FMISO, fluoromisonidazole]",uptake by obligate anaerobes compared with facultative anaerobes,"[3]; 70 μM [^19F]FMISO, B.fragilis vs E.coli (FIG. 2)",taken up in a greater amount by obligate anaerobes than by facultative anaerobes
same,uptake by acid-fast bacteria compared with E.coli,"[2]; [^19F]FMISO 0.09 mM, E.coli data from Example 1 (FIG. 10)",taken up in a greater amount by nitroimidazole derivative susceptible Mycobacterium tuberculosis in the resting stage of division than by nitroimidazole derivative non-susceptible E.coli
